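Exposure lasted 48 hours, with cells grown in 96-well plates and compounds tested at five concentrations. Here, GI50 denotes the concentration required for 50% inhibition of growth. TGI marks complete inhibition of growth.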

Test systems include 786-0 renal; IGROV1 ovarian; KM12 colon; OVCAR-4 ovarian; OVCAR-8 ovarian; SF-539 CNS; SK-MEL-28 melanoma; UO-31 renal; MCF7 breast.
What all share (assay): inhibition of tumour cell growth, NCI panel, 48 h

Take `CC1OC(n2cc(I)c(=O)[nH]c2=O)C=CC1=O` (configuration not stated): the TGI in the assay with 786-0 renal is 26.9 µM; in the assay on IGROV1 ovarian it was 39.2 µM; in the assay with KM12 colon, 25.8 µM; in the assay on OVCAR-4 ovarian, 29.8 µM; in the assay on OVCAR-8 ovarian it was 30.8 µM; with SF-539 CNS, 27.5 µM. The TGI turned out to be 29.2 µM with SK-MEL-28 melanoma and 30.5 µM in the assay on UO-31 renal.

Take `Nc1nc(Cl)nc2c1ncn2C1CCC(COP(=O)(O)OP(=O)(O)OP(=O)(O)O)O1` (configuration not stated): the TGI in the assay with 786-0 renal is > 100 µM; with IGROV1 ovarian, > 100 µM; in the assay with KM12 colon, > 100 µM; in the assay on MCF7 breast, > 100 µM; in the assay with OVCAR-4 ovarian it was 77.8 µM; with OVCAR-8 ovarian it was 51.9 µM. For the same molecule, the TGI is > 100 µM in the assay with SF-539 CNS, 54.1 µM with SK-MEL-28 melanoma and 48.2 µM in the assay on UO-31 renal.

Consider `CC1=C2[C@@H](c3ccccc3)C3C=CC2(c2ccccc23)N(C(=O)Nc2cccc3ccccc23)C1=O` (some centres not stated), for which the TGI in the assay with 786-0 renal, in the assay with IGROV1 ovarian, in the assay on KM12 colon, in the assay on OVCAR-4 ovarian, in the assay on OVCAR-8 ovarian and in the assay on SF-539 CNS was > 100 µM each time. The TGI in the assay with SK-MEL-28 melanoma and in the assay with UO-31 renal was > 100 µM each time.

With `C[CH2][Sn]([Cl])([CH2]C)[CH2]C`, the GI50 in the assay on 786-0 renal was 1.01 µM; with IGROV1 ovarian, 0.646 µM; in the assay with KM12 colon, 1.08 µM; in the assay with OVCAR-4 ovarian it was 1.41 µM; in the assay on OVCAR-8 ovarian it was 1.69 µM; in the assay on SF-539 CNS, 1.01 µM. The GI50 with SK-MEL-28 melanoma was 1.67 µM; in the assay with UO-31 renal, 1.65 µM. Besides, the TGI in the assay on 786-0 renal amounted to 3.63 µM; in the assay with IGROV1 ovarian, 5.22 µM; in the assay on KM12 colon, 12.8 µM; in the assay on OVCAR-4 ovarian, 11 µM; in the assay on OVCAR-8 ovarian, 4.35 µM; in the assay on SF-539 CNS, 2.91 µM. Also, the TGI in the assay on SK-MEL-28 melanoma worked out at 11.6 µM; in the assay on UO-31 renal, 4.05 µM.

Consider `O=[N+]([O-])c1cc([N+](=O)[O-])c(C(Cl)C(Cl)c2ccccc2)cc1C(Cl)C(Cl)c1ccccc1` (configuration not stated), for which the TGI with 786-0 renal came to 3.12 µM; in the assay on IGROV1 ovarian, 7.53 µM; with KM12 colon, 3.76 µM; in the assay on OVCAR-4 ovarian, 7.28 µM; in the assay on OVCAR-8 ovarian it was 4.62 µM; with SF-539 CNS it was 3.33 µM. For the same molecule, the TGI with SK-MEL-28 melanoma is 3.95 µM; in the assay on UO-31 renal, 2.93 µM.

With `CO[C@]12CCC(=O)N1C=Cc1c2[nH]c2ccccc12`, the TGI in the assay with 786-0 renal, with IGROV1 ovarian, in the assay with OVCAR-4 ovarian, in the assay on OVCAR-8 ovarian, with SF-539 CNS and with SK-MEL-28 melanoma was > 100 µM each time. Besides, the TGI with UO-31 renal was > 100 µM.

Take `O=C(NCCCCCCNC(=O)NC1OCC(O)C(O)C1O)NC1OCC(O)C(O)C1O` (configuration not stated): the TGI in the assay with 786-0 renal, with IGROV1 ovarian, in the assay on KM12 colon, in the assay with OVCAR-4 ovarian, with OVCAR-8 ovarian and with SF-539 CNS was > 100 µM throughout. Also, in the assay on SK-MEL-28 melanoma, the TGI is > 100 µM.

As for `COc1ccc(C(=O)c2cc(OC)c(OC)c(OC)c2)cc1/C=C/C(=O)c1ccc2c(c1)OCO2`, the GI50 is 2.28 µM with 786-0 renal; 3.52 µM with IGROV1 ovarian; 0.381 µM with MCF7 breast; 5.05 µM in the assay on OVCAR-4 ovarian; 2.32 µM in the assay on OVCAR-8 ovarian. Besides, the TGI with 786-0 renal is 5.84 µM; with IGROV1 ovarian, 14.1 µM; in the assay on MCF7 breast, > 100 µM; in the assay on OVCAR-4 ovarian, > 100 µM; in the assay on OVCAR-8 ovarian, 13.1 µM.

With `CN1CCc2cc(O)c3cc2C1Cc1ccc(cc1)Oc1cc(ccc1O)CC1c2c(cc4c(c2O3)OCO4)CCN1C` (configuration not stated), the TGI is > 100 µM with 786-0 renal; > 100 µM with IGROV1 ovarian; > 100 µM with KM12 colon; 88.6 µM with OVCAR-4 ovarian; 48.9 µM in the assay with OVCAR-8 ovarian; 32.6 µM with SF-539 CNS. The figures for the TGI in the assay on SK-MEL-28 melanoma and in the assay with UO-31 renal were 46.4 µM and 9.46 µM, respectively.

As for `CCOC(=O)NN(C(=O)OCC)C(C(=O)c1ccc(Cl)cc1)=C1NCCN1`, the TGI in the assay on 786-0 renal, in the assay on IGROV1 ovarian, in the assay on KM12 colon, in the assay with OVCAR-4 ovarian, in the assay with OVCAR-8 ovarian and in the assay with SF-539 CNS was > 100 µM each time. Moreover, the TGI in the assay on SK-MEL-28 melanoma and in the assay with UO-31 renal was > 100 µM each time.

Take `CCC[CH2][Ge]([CH2]CCC)([CH2]CCC)[O]C(=O)C(OC(C)=O)c1ccccc1` (configuration not stated): the GI50 with 786-0 renal is 6.34 µM; in the assay on IGROV1 ovarian, 11.2 µM; in the assay with KM12 colon it was 2.98 µM; in the assay on OVCAR-4 ovarian, 0.166 µM; in the assay with OVCAR-8 ovarian it was 9.77 µM; in the assay with SF-539 CNS, 7.63 µM. Also, the results for the GI50 with SK-MEL-28 melanoma and in the assay with UO-31 renal were 8.12 µM and 1.5 µM, respectively. Moreover, the TGI was determined as 22.8 µM with 786-0 renal; 25.8 µM in the assay with IGROV1 ovarian; 22.1 µM in the assay with KM12 colon; 20.2 µM in the assay with OVCAR-4 ovarian; 22.8 µM in the assay on OVCAR-8 ovarian; 22.3 µM in the assay on SF-539 CNS. For the same molecule, the TGI amounted to 22.1 µM in the assay with SK-MEL-28 melanoma and 18.5 µM with UO-31 renal.

In the case of `CC(=O)OCc1c(C)c2ccccc2n1C(C)=O`, the TGI in the assay on 786-0 renal, in the assay with IGROV1 ovarian, in the assay with KM12 colon, in the assay on OVCAR-4 ovarian, in the assay on OVCAR-8 ovarian and with SF-539 CNS was > 100 µM each time. Besides, the TGI in the assay on SK-MEL-28 melanoma and with UO-31 renal was > 100 µM in each case.

Consider `N#Cc1nc(Nc2ccc(Cl)cc2)sc1N`, for which the TGI in the assay with 786-0 renal is 33.7 µM; with IGROV1 ovarian, > 88.9 µM; in the assay with KM12 colon, > 86.5 µM; in the assay with OVCAR-4 ovarian, > 72.5 µM; in the assay with OVCAR-8 ovarian, > 79.4 µM; in the assay with SF-539 CNS, 9.46 µM. Further, the TGI with SK-MEL-28 melanoma is > 70.8 µM; in the assay with UO-31 renal it was 26.8 µM.

As for `Cc1ccc(S(=O)(=O)NC(=O)C#CCOC2CCCCO2)cc1` (configuration not stated), the TGI in the assay on 786-0 renal, in the assay with OVCAR-4 ovarian, with OVCAR-8 ovarian, with SF-539 CNS, with SK-MEL-28 melanoma and in the assay on UO-31 renal was > 100 µM each time.
